Where “and” joins values, the source holds several entries; their conditions need not be identical. Equal entries are not always repeated. Inconclusive results and toxic doses are left out.
Test system: P388 leukemia ip, CD2F1 mice, survival T/C
Assay: NCI In Vivo Anticancer Drug Screen. Data for tumor model P388 Leukemia (intraperitoneal) in CD2F1 (CDF1) mice
Conditions: endpoint: median survival time, higher = longer survival
Method in brief: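 Mice carrying the transplanted tumor received test compound or vehicle. Survival was recorded in each group, and the value is the treated-group measurement divided by that of the vehicle-treated control group.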

[1] = dose: 60.0 mg/kg/injection, schedule: Q01DX005 (ip), vehicle: saline with Tween-80
[2] = dose: 120.0 mg/kg/injection, schedule: Q01DX005 (ip), vehicle: saline with Tween-80
[3] = dose: 50.0 mg/kg/injection, schedule: Q01DX005 (ip), vehicle: Klucel (hydroxypropylcellulose) (HPC)
[4] = dose: 25.0 mg/kg/injection, schedule: Q01DX009 (ip), vehicle: saline with Tween-80
[5] = dose: 50.0 mg/kg/injection, schedule: Q01DX009 (ip), vehicle: saline with Tween-80
[6] = dose: 100.0 mg/kg/injection, schedule: Q01DX009 (ip), vehicle: saline with Tween-80
[7] = dose: 50.0 mg/kg/injection, schedule: Q01DX009 (ip), vehicle: Klucel (hydroxypropylcellulose) (HPC)
[8] = dose: 100.0 mg/kg/injection, schedule: Q01DX009 (ip), vehicle: Klucel (hydroxypropylcellulose) (HPC)
[9] = dose: 200.0 mg/kg/injection, schedule: Q01DX009 (ip), vehicle: Klucel (hydroxypropylcellulose) (HPC)
[10] = dose: 50.0 mg/kg/injection, schedule: Q01DX005 (ip), vehicle: saline with Tween-80
[11] = dose: 100.0 mg/kg/injection, schedule: Q01DX005 (ip), vehicle: saline with Tween-80
[12] = dose: 200.0 mg/kg/injection, schedule: Q01DX005 (ip), vehicle: saline with Tween-80
[13] = dose: 60.0 mg/kg/injection, schedule: Q01DX005 (ip), vehicle: Klucel (hydroxypropylcellulose) (HPC)
[14] = dose: 120.0 mg/kg/injection, schedule: Q01DX005 (ip), vehicle: Klucel (hydroxypropylcellulose) (HPC)
[15] = dose: 240.0 mg/kg/injection, schedule: Q01DX005 (ip), vehicle: Klucel (hydroxypropylcellulose) (HPC)
[16] = dose: 240.0 mg/kg/injection, schedule: Q01DX005 (ip), vehicle: saline with Tween-80
[17] = dose: 7.5 mg/kg/injection, schedule: Q01DX005 (ip), vehicle: saline with Tween-80
[18] = dose: 15.0 mg/kg/injection, schedule: Q01DX005 (ip), vehicle: saline with Tween-80

With CCCCCn1c(C)cc(/C=C\c2ccc3cc(C)ccc3[n+]2C)c1C the T/C (dose: 0.5 mg/kg/injection, schedule: Q04DX003 (ip), vehicle: saline) was 118 % of control, the T/C (dose: 1.0 mg/kg/injection, schedule: Q04DX003 (ip), vehicle: saline) was 109 % of control and the T/C (dose: 2.0 mg/kg/injection, schedule: Q04DX003 (ip), vehicle: saline) was 109 % of control.
In the case of CC(=O)NS(=O)(=O)c1ccc(N=NC2=C(O)C(c3ccccc3)N(c3ccccc3)C2=O)cc1 (centres undefined), the T/C [1] is reported as 96 % of control and the T/C [2] is reported as 91 % of control.
For CC1=CC(C/C(C)=C/COc2ccc3ccc(=O)oc3c2)OC1=O (centres undefined), the T/C (dose: 12.5 mg/kg/injection, schedule: Q01DX005 (ip), vehicle: Klucel (hydroxypropylcellulose) (HPC)) was 87 % of control, the T/C (dose: 25.0 mg/kg/injection, schedule: Q01DX005 (ip), vehicle: Klucel (hydroxypropylcellulose) (HPC)) was 90 % of control and the T/C [3] was 97 % of control.
For CCCCCCCCCCCCCCCCONc1ccnc(=O)[nH]1, the T/C (dose: 37.5 mg/kg/injection, schedule: Q01DX001 (ip), vehicle: Klucel (hydroxypropylcellulose) (HPC)) was 91 % of control and the T/C (dose: 75.0 mg/kg/injection, schedule: Q01DX001 (ip), vehicle: Klucel (hydroxypropylcellulose) (HPC)) was 91 % of control.
For COc1c2occc2c(S(N)(=O)=O)c2ccc(=O)oc12, the T/C [4] was 106 % of control, the T/C [5] was 103 % of control and the T/C [6] was 106 % of control.
In the case of COC1C(/C=[N+](\[O-])C2C(C3COC(C)(C)O3)OC3OC(C)(C)OC32)OC2OC(C)(C)OC21 (centres undefined), the T/C [7] is reported as 100 % of control, the T/C [8] is reported as 103 % of control and the T/C [9] is reported as 105 % of control.
CC(C)=CCCC1(C)C=Cc2c(ccc3c(C)coc23)O1 (centres undefined) was tested, and the T/C [10] was 97 % of control, the T/C [11] was 100 % of control and the T/C [12] was 100 % of control.
With CN(C)C(=O)N1CCc2ccc([N+](=O)[O-])cc21 the T/C [7] was 104 % of control, the T/C [8] was 100 % of control and the T/C [9] was 98 % of control.
For CC1COn2c1nc1ccccc1c2=O (centres undefined), the T/C [7] was 104 % of control, the T/C [8] was 103 % of control and the T/C [9] was 104 % of control.
For COC(=O)Nc1cc2c(cc1[N+](=O)[O-])OCCOCCOCCOCCO2, the T/C [10] was 100 % of control, the T/C [11] was 98 % of control and the T/C [12] was 101 % of control.
For COc1ccc(OC)c2c(Cl)cc(NCCCCCCCCNc3cc(Cl)c4c(OC)ccc(OC)c4n3)nc12, the T/C (dose: 30.0 mg/kg/injection, schedule: Q01DX005 (ip), vehicle: Klucel (hydroxypropylcellulose) (HPC)) was 101 % of control, the T/C [13] was 101 % of control and the T/C [14] was 100 % of control. The T/C [15] was 100 % of control.
With CCN(CC)c1ccc2cc(S(=O)(=O)c3ccc(C)cc3)c(=O)oc2c1 the T/C [10] was 96 % of control.
In the case of Nc1nc(N)c2c(Cl)c(CNc3ccc(C(=O)NC(CC(=O)O)CC(=O)O)cc3)ccc2n1, the T/C (dose: 1.5 mg/kg/injection, schedule: Q01DX005 (ip), vehicle: saline with Tween-80) is reported as 155 % of control, the T/C (dose: 3.0 mg/kg/injection, schedule: Q01DX005 (ip), vehicle: saline with Tween-80) is reported as 174 % of control and the T/C (dose: 6.0 mg/kg/injection, schedule: Q01DX005 (ip), vehicle: saline with Tween-80) is reported as 202 % of control. For the same molecule, the T/C (dose: 6.25 mg/kg/injection, schedule: Q01DX005 (ip), vehicle: saline with Tween-80) was 235 % of control and the T/C (dose: 12.0 mg/kg/injection, schedule: Q01DX005 (ip), vehicle: saline with Tween-80) was 275 % of control.
With COc1ccc(C2OC3=Nc4cc(C)c(C)cc4NC3C2=O)cc1OC (centres undefined) the T/C [1] was 101 % of control, the T/C [2] was 101 % of control and the T/C [16] was 99 % of control.
For COc1ccc(C(=O)/C(C)=C(/C)N)c(OCc2ccccc2)c1OC, the T/C [3] was 104 % of control, the T/C (dose: 100.0 mg/kg/injection, schedule: Q01DX005 (ip), vehicle: Klucel (hydroxypropylcellulose) (HPC)) was 94 % of control and the T/C (dose: 200.0 mg/kg/injection, schedule: Q01DX005 (ip), vehicle: Klucel (hydroxypropylcellulose) (HPC)) was 105 % of control.
For CC1(C)OC1CS(=O)c1ccccc1 (centres undefined), the T/C [5] was 101 % of control, the T/C (dose: 66.0 mg/kg/injection, schedule: Q01DX009 (ip), vehicle: saline with Tween-80) was 99 % of control and the T/C [6] was 99 % of control and 121 % of control. For the same molecule, the T/C (dose: 200.0 mg/kg/injection, schedule: Q01DX009 (ip), vehicle: saline with Tween-80) was 114 % of control.
For Cc1ncc(C[n+]2cccc(CCO)c2C)c(N)n1, the T/C (dose: 50.0 mg/kg/injection, schedule: Q04DX003 (ip), vehicle: saline) was 97 % of control, the T/C (dose: 100.0 mg/kg/injection, schedule: Q04DX003 (ip), vehicle: saline) was 103 % of control and the T/C (dose: 200.0 mg/kg/injection, schedule: Q04DX003 (ip), vehicle: saline) was 100 % of control.
In the case of N#CC1CCCC[N-]1.[NH-]CC[N-]CC[NH-].[Pt+4] (centres undefined), the T/C (dose: 6.25 mg/kg/injection, schedule: Q01DX009 (ip), vehicle: saline) is reported as 93 % of control, the T/C (dose: 12.5 mg/kg/injection, schedule: Q01DX009 (ip), vehicle: saline) is reported as 97 % of control and the T/C (dose: 25.0 mg/kg/injection, schedule: Q01DX009 (ip), vehicle: saline) is reported as 100 % of control. For the same molecule, the T/C (dose: 50.0 mg/kg/injection, schedule: Q01DX009 (ip), vehicle: saline) was 97 % of control and the T/C (dose: 100.0 mg/kg/injection, schedule: Q01DX009 (ip), vehicle: saline) was 89 % of control.
For O=C1C=CC(Nc2cccc([N+](=O)[O-])c2)C1Nc1cccc([N+](=O)[O-])c1 (centres undefined), the T/C [17] was 102 % of control, the T/C [18] was 90 % of control and the T/C (dose: 30.0 mg/kg/injection, schedule: Q01DX005 (ip), vehicle: saline with Tween-80) was 91 % of control. The T/C [16] was 88 % of control and 92 % of control.
For Cc1nc2c([N+](=O)[O-])c(Nc3ccc(O)cc3)c([N+](=O)[O-])cc2[nH]1, the T/C (dose: 100.0 mg/kg/injection, schedule: Q04DX003 (ip), vehicle: saline with Tween-80) was 99 % of control, the T/C (dose: 200.0 mg/kg/injection, schedule: Q04DX003 (ip), vehicle: saline with Tween-80) was 92 % of control and the T/C (dose: 400.0 mg/kg/injection, schedule: Q04DX003 (ip), vehicle: saline with Tween-80) was 92 % of control.
With OC1CSc2ccccc2-n2cccc21 (centres undefined) the T/C [13] was 99 % of control, the T/C [14] was 106 % of control and the T/C [15] was 105 % of control.
In the case of Cc1ccc(SSC(=S)N2CCOCC2)cc1, the T/C (dose: 100.0 mg/kg/injection, schedule: Q01DX001 (ip), vehicle: Klucel (hydroxypropylcellulose) (HPC)) is reported as 104 % of control, the T/C (dose: 200.0 mg/kg/injection, schedule: Q01DX001 (ip), vehicle: Klucel (hydroxypropylcellulose) (HPC)) is reported as 96 % of control and the T/C (dose: 400.0 mg/kg/injection, schedule: Q01DX001 (ip), vehicle: Klucel (hydroxypropylcellulose) (HPC)) is reported as 101 % of control.
With O=C(N/N=C/c1ccccc1O)c1cc2ccccc2cc1O the T/C [17] was 92 % of control and the T/C [18] was 88 % of control.
In the case of CCn1c(=O)c2[nH]c(Br)nc2n(CC)c1=O, the T/C (dose: 12.5 mg/kg/injection, schedule: Q01DX009 (ip), vehicle: Klucel (hydroxypropylcellulose) (HPC)) is reported as 124 % of control, the T/C (dose: 16.0 mg/kg/injection, schedule: Q01DX009 (ip), vehicle: Klucel (hydroxypropylcellulose) (HPC)) is reported as 106 % of control and the T/C (dose: 25.0 mg/kg/injection, schedule: Q01DX009 (ip), vehicle: Klucel (hydroxypropylcellulose) (HPC)) is reported as 103 % of control and 97 % of control. The T/C (dose: 32.0 mg/kg/injection, schedule: Q01DX009 (ip), vehicle: Klucel (hydroxypropylcellulose) (HPC)) was 104 % of control, the T/C [7] was 105 % of control and 95 % of control and the T/C (dose: 64.0 mg/kg/injection, schedule: Q01DX009 (ip), vehicle: Klucel (hydroxypropylcellulose) (HPC)) was 114 % of control. For the same molecule, the T/C [8] was 98 % of control and 103 % of control.
For N=C(N)SCC(=O)n1ccc(=O)n(C(=O)CSC(=N)N)c1=O, the T/C (dose: 100.0 mg/kg/injection, schedule: Q04DX002 (ip), vehicle: saline) was 100 % of control, the T/C (dose: 200.0 mg/kg/injection, schedule: Q04DX002 (ip), vehicle: saline) was 100 % of control and the T/C (dose: 400.0 mg/kg/injection, schedule: Q04DX002 (ip), vehicle: saline) was 96 % of control.
With Cc1cc(N(C)C)nc2cc(N)ccc12 the T/C (dose: 12.5 mg/kg/injection, schedule: Q01DX009 (ip), vehicle: saline with Tween-80) was 103 % of control, the T/C [4] was 111 % of control and the T/C [5] was 101 % of control and 89 % of control.
